Here are results for 1 molecule from ChEMBL document CHEMBL2057079, “Activity-based fluorescent probes for monitoring sulfatase activity” (Bioorg Med Chem Lett, 2012).

This test is filed under the species Homo sapiens. Kind of test: Binding affinity to arylsulfatase assessed as fluorescence quenching at 10 uM at pH 7.5 after 1.5 hrs by fluorescence spectrophotometry.

Molecules are shown by their SMILES. The source made the active and inactive calls. The calls are words filed in the database; no cut-off is given here.

For the molecule `CN(C)c1cccc2c(S(=O)(=O)NCC(O)c3ccc(OS(=O)(=O)O)cc3)cccc12` (stereo unspecified), the result was inactive.
